Measured values: PubChem BioAssay AID288 (DTP/NCI, 2004)
Inconclusive results are not listed. Numbered stars: 1 amine (or outer) side, 2 acyl side, 3 side chain; on linkers, the order of the positions; unused ones are H or OH. Bridge positions count the residues as written; N and C are the ends. Square brackets hold non-standard residues; d marks the D form. Peptide text beside a SMILES is read from it. I, II: the chains in the order shown. Actinocin(9to1) = Cc1c2oc3c(C)ccc(C(=O)[*:1])c3nc-2c(C(=O)[*:2])c(N)c1=O; aThr = C[C@H](O)[C@H](N)C(=O)O; NMeV = CN[C@H](C(=O)O)C(C)C; Sar = CNCC(=O)O

System: BDF1 mice, M5076 sarcoma s.c., survival/tumor T/C
Test: NCI In Vivo Anticancer Drug Screen. Data for tumor model Sarcoma M5076 (subcutaneous) in B6D2F1 (BDF1) mice
Protocol: The antitumor activity of compounds was measured in mice bearing transplantable tumors. Survival or tumor size were measured and the results are expressed as the measurement made in the treated group (T) divided by the measurement made in the vehicle treated control group (C). The tumor model used in this assay is Sarcoma M5076 (subcutaneous) in B6D2F1 (BDF1) mice

[1] = endpoint: median survival time, dose: 50.0 mg/kg/injection, schedule: Q01DX009 (ip), vehicle: saline with Tween-80, higher = longer survival
[2] = endpoint: median survival time, dose: 100.0 mg/kg/injection, schedule: Q01DX009 (ip), vehicle: saline with Tween-80, higher = longer survival
[3] = endpoint: median tumor weight (est.), dose: 50.0 mg/kg/injection, schedule: Q01DX009 (ip), vehicle: saline with Tween-80, higher = larger tumour
[4] = endpoint: median tumor weight (est.), dose: 100.0 mg/kg/injection, schedule: Q01DX009 (ip), vehicle: saline with Tween-80, higher = larger tumour

`Cc1c2oc3c(C)ccc(C(=O)N[C@@H]4C(=O)N[C@H](C(C)C)C(=O)N5CCC[C@H]5C(=O)N(C)CC(=O)N(C)[C@@H](C(C)C)C(=O)O[C@H]4C)c3nc-2c(C(=O)N[C@@H]2C(=O)N[C@H](C(C)C)C(=O)N3CCC[C@H]3C(=O)N(C)CC(=O)N(C)[C@@H](C(C)C)C(=O)O[C@H]2C)c(N)c1=O` (I: [aThr][dV]P[Sar][NMeV] / II: [aThr][dV]P[Sar][NMeV]; ester I:1-I:C, II:1-II:C; linker I:N-II:N via Actinocin(9to1)) was tested, and the T/C (endpoint: median survival time, dose: 0.01 mg/kg/injection, schedule: Q04DX006 (ip), vehicle: saline, higher = longer survival) was 102 % of control, the T/C (endpoint: median survival time, dose: 0.03 mg/kg/injection, schedule: Q04DX006 (ip), vehicle: saline, higher = longer survival) was 95 % of control and the T/C (endpoint: median survival time, dose: 0.06 mg/kg/injection, schedule: Q04DX006 (ip), vehicle: saline, higher = longer survival) was 102 % of control. For the same compound, the T/C (endpoint: median survival time, dose: 0.12 mg/kg/injection, schedule: Q04DX006 (ip), vehicle: saline, higher = longer survival) was 102 % of control, the T/C (endpoint: median tumor weight (est.), dose: 4.7 micrograms/kg/injection, schedule: Q02DX011 (ip), vehicle: saline, higher = larger tumour) was 78 % of control and the T/C (endpoint: median tumor weight (est.), dose: 7.8 micrograms/kg/injection, schedule: Q02DX011 (ip), vehicle: saline, higher = larger tumour) was 109 % of control. For the same compound, the T/C (endpoint: median tumor weight (est.), dose: 13.0 micrograms/kg/injection, schedule: Q02DX011 (ip), vehicle: saline, higher = larger tumour) was 66 % of control, the T/C (endpoint: median tumor weight (est.), dose: 21.6 micrograms/kg/injection, schedule: Q02DX011 (ip), vehicle: saline, higher = larger tumour) was 83 % of control and the T/C (endpoint: median tumor weight (est.), dose: 36.0 micrograms/kg/injection, schedule: Q02DX011 (ip), vehicle: saline, higher = larger tumour) was 59 % of control. The T/C (endpoint: median tumor weight (est.), dose: 60.0 micrograms/kg/injection, schedule: Q02DX011 (ip), vehicle: saline, higher = larger tumour) was 78 % of control and the T/C (endpoint: median tumor weight (est.), dose: 100.0 micrograms/kg/injection, schedule: Q02DX011 (ip), vehicle: saline, higher = larger tumour) was 51 % of control.

With `Nc1n[n+](-c2ccc(Cl)cc2)no1` the T/C (endpoint: median survival time, dose: 25.0 mg/kg/injection, schedule: Q04DX003 (ip), vehicle: water, higher = longer survival) was 99 % of control and the T/C (endpoint: median survival time, dose: 50.0 mg/kg/injection, schedule: Q04DX003 (ip), vehicle: water, higher = longer survival) was 100 % of control.

In the case of `Cn1c2c(c(=O)n(C)c1=O)CS(=O)c1ccccc1N2` (configuration not stated), the T/C [1] is reported as 103 % of control, the T/C [2] is reported as 106 % of control and the T/C (endpoint: median survival time, dose: 200.0 mg/kg/injection, schedule: Q01DX009 (ip), vehicle: saline with Tween-80, higher = longer survival) is reported as 109 % of control. The T/C [3] was 65 % of control, the T/C [4] was 61 % of control and the T/C (endpoint: median tumor weight (est.), dose: 200.0 mg/kg/injection, schedule: Q01DX009 (ip), vehicle: saline with Tween-80, higher = larger tumour) was 83 % of control.

With `Nc1ncnc2c1ccn2C1OC(CO)C(O)C1O` (configuration not stated) the T/C (endpoint: mean tumor weight, dose: 0.75 mg/kg/injection, schedule: Q02DX011 (ip), vehicle: saline, higher = larger tumour) was 117 % of control, the T/C (endpoint: mean tumor weight, dose: 1.5 mg/kg/injection, schedule: Q02DX011 (ip), vehicle: saline, higher = larger tumour) was 101 % of control and the T/C (endpoint: median tumor weight (est.), dose: 0.38 mg/kg/injection, schedule: Q02DX011 (ip), vehicle: saline, higher = larger tumour) was 82 % of control. The T/C (endpoint: median tumor weight (est.), dose: 0.75 mg/kg/injection, schedule: Q02DX011 (ip), vehicle: saline, higher = larger tumour) was 168 % of control and the T/C (endpoint: median tumor weight (est.), dose: 1.5 mg/kg/injection, schedule: Q02DX011 (ip), vehicle: saline, higher = larger tumour) was 110 % of control.

`OCCNCCN=C1CCC(=NCCNCCO)CC1` was tested, and the T/C [1] was 100 % of control, the T/C [2] was 100 % of control and the T/C [3] was 105 % of control. For the same compound, the T/C [4] was 112 % of control.

For `CNc1nc(N(C)C)nc(N(C)C)n1`, the T/C (endpoint: median tumor weight (est.), dose: 15.0 mg/kg/injection, schedule: Q02DX011 (ip), vehicle: water, higher = larger tumour) was 87 % of control, the T/C (endpoint: median tumor weight (est.), dose: 30.0 mg/kg/injection, schedule: Q02DX011 (ip), vehicle: water, higher = larger tumour) was 85 % of control and the T/C (endpoint: median tumor weight (est.), dose: 60.0 mg/kg/injection, schedule: Q02DX011 (ip), vehicle: water, higher = larger tumour) was 43 % of control. The T/C (endpoint: median tumor weight (est.), dose: 120.0 mg/kg/injection, schedule: Q02DX011 (ip), vehicle: water, higher = larger tumour) was 13 % of control.
